According to patent US20210355115A1, “ISOXAZOLE CARBOXAMIDE COMPOUNDS AND USES THEREOF” (Novartis AG, priority 2018, published 2021):

Tested on: Atoh1
Assay: Atoh1 induction assay in mouse cerebellar neural precursor cells (Atoh1-GFP reporter assay)
Type: cell-based
Settings: maximum fold difference over DMSO control (=1), cerebellar NPCs from Atoh1-GFP mice, 10 doses 50 μM to 200 nM, 72 hours treatment, read-out: Fold Difference (ratio of Atoh1-GFP average intensity_FC to DMSO_Max)
Protocol: Atoh1 induction assay was conducted with in vitro cultured cerebellar neural precursor cells isolated from neonatal transgenic Atoh1-GFP mice. Atoh1 expression is mainly regulated by the enhancer, and the nuclear GFP was driven by the cloned enhancer sequence at 3′ of Atoh1 which had high conservation among mammalians So Atoh1 induction could be reflected by GFP activation in cerebellar neural precursor cells (Helms et al., Development 2000; 127: 1185-1196; Lumpkin et al., Gene Expression Patterns 2003; 3: 389-395). Postnatal 3 days pups were dissected for cerebellum tissue isolation. The cerebellum tissue was cut into small pieces, and dissociated with 0.05% Trypsin for about 10 minutes at 37° C., and then filtered with a 70 uM cell strainer. The cells were cultured as neuropsheres for the first 2 days in ultra-low attachment dish/well-plate with DMEM/F12+1% N2 &2% B27 with 1% P/S, 20 ng/ml rhFGF2 and 20 ng/ml rhEGF (R&D Systems). Then the spheres were plated to the matrigel (1:30 diluted in DMEM/F12)-coated tissue culture dish for monolayer culture. After 4.5-5.5 days culture in vitro (DIV), cells were dissociated with 0.05% trypsin into single cells, and frozen after cell number calculation.
The cerebellar neural precursor cells (NPCs) were re-thawed from stock and cultured for another 2 days before used for Atoh1 induction assay. On the first day of assay, NPCs were seeded into matrigel-coated 384 well plates (Black view-plate, PE) at 2500 cells/well. After over-night culture, the NPCs were treated with representative compounds of the present disclosure with 1:2 serial dilutions for 10 doses, from 50 μM to 200 nM, with DMSO as negative control. After 72 hours treatment without medium change, the cells were fixed with 4% formalin for staining Assay plates were stained with GFP antibody (Abcam, #13970, 1:1000) to amplify endogenous GFP signal and then read by Cellomics. […] Table 1 Atoh1 activation by treatment of Compounds of the present disclosure (Atoh1-GFP reporter assay in cerebellar NPCs)

Row | SMILES | maximal fold induction
1 | N#C[C@H]1CCN(CCCCCNC(=O)c2cc(-c3ccc(F)cc3)on2)C[C@H]1O (single isomer, unassigned) [Example 2] | 11.5
2 | NC(=O)[C@@H]1CCN(CCCCCNC(=O)c2cc(-c3cccs3)on2)C[C@@H]1O (stereo in doubt) [Example 30, N-(5-(4-carbamoyl-3-hydroxypiperidin-1-yl)pentyl)-5-(thiophen-2-yl)isoxazole-3-carboxamide] | 16.1
3 | N#C[C@@H]1CN(CCCCCNC(=O)c2cc(-c3cccs3)on2)C[C@@H]1O [34 cis] | 11.2
4 | NC(=O)[C@H](O)CN1CCN(CCCCCNC(=O)c2cc(-c3cccs3)on2)CC1 [37 R] | 29.2
5 | NC(=O)[C@@H](O)CN1CCN(CCCCCNC(=O)c2cc(-c3cccs3)on2)CC1 [37 S] | 31.5
6 | N#C[C@@H]1CN(CCCCCNC(=O)c2cc(-c3cccs3)on2)CC[C@@H]1C(N)=O [Example 1, N-(5-((3S,4S)-4-carbamoyl-3-cyanopiperidin-1-yl)pentyl)-5-(thiophen-2-yl)isoxazole-3-carboxamide] | 12.7
7 | O=C(NCCCCCN1CC(S(=O)(=O)NC2COC2)C1)c1cc(-c2cccs2)on1 [Example 3, N-(5-(3-(N-(oxetan-3-yl)sulfamoyl)azetidin-1-yl)pentyl)-5-(thiophen-2-yl)isoxazole-3-carboxamide] | 11.2
8 | N#CCCNS(=O)(=O)C1CN(CCCCCNC(=O)c2cc(-c3cccs3)on2)C1 [Example 4, N-(5-(3-(N-(2-cyanoethyl)sulfamoyl)azetidin-1-yl)pentyl)-5-(thiophen-2-yl)isoxazole-3-carboxamide] | 18.3
9 | CNC(=O)COC(=O)NC1CN(CCCCCNC(=O)c2cc(-c3cccs3)on2)C1 [Example 5] | 17.2
10 | NS(=O)(=O)C1CCCN(CCCCCNC(=O)c2cc(-c3cccs3)on2)C1 (centres unmarked) [Example 6, N-(5-(3-sulfamoylpiperidin-1-yl)pentyl)-5-(thiophen-2-yl)isoxazole-3-carboxamide] | 20.1
11 | NS(=O)(=O)C1CCN(CCCCCNC(=O)c2cc(-c3cccs3)on2)C1 (centres unmarked) [Example 7, N-(5-(3-sulfamoylpyrrolidin-1-yl)pentyl)-5-(thiophen-2-yl)isoxazole-3-carboxamide] | 17.2
12 | NC(=O)C1CCN(CCCCCNC(=O)c2cc(-c3ccc(F)cc3)on2)C1 (centres unmarked) [Example 8, N-(5-(3-carbamoylpyrrolidin-1-yl)pentyl)-5-(4-fluorophenyl)isoxazole-3-carboxamide] | 14.6
13 | NC(=O)C1(CO)CN(CCCCCNC(=O)c2cc(-c3cccs3)on2)C1 [Example 9, N-(5-(3-carbamoyl-3-(hydroxymethyl)azetidin-1-yl)pentyl)-5-(thiophen-2-yl)isoxazole-3-carboxamide] | 24.4
14 | NC(=O)C1(CO)CN(CCCCCNC(=O)c2cc(-c3ccc(F)cc3)on2)C1 [Example 10, N-(5-(3-carbamoyl-3-(hydroxymethyl)azetidin-1-yl)pentyl)-5-(4-fluorophenyl)isoxazole-3-carboxamide] | 19.1
15 | CC1(C(N)=O)CN(CCCCCNC(=O)c2cc(-c3cccs3)on2)C1 [Example 11, N-(5-(3-carbamoyl-3-methylazetidin-1-yl)pentyl)-5-(thiophen-2-yl)isoxazole-3-carboxamide] | 33.3
16 | CC1(C(N)=O)CN(CCCCCNC(=O)c2cc(-c3ccc(F)cc3)on2)C1 [Example 12, N-(5-(3-carbamoyl-3-methylazetidin-1-yl)pentyl)-5-(4-fluorophenyl)isoxazole-3-carboxamide] | 22.4
17 | NC(=O)C1CN(CCCCCNC(=O)c2cc(-c3cccs3)on2)CC1O (centres unmarked) [Example 13, N-(5-(3-carbamoyl-4-hydroxypyrrolidin-1-yl)pentyl)-5-(thiophen-2-yl)isoxazole-3-carboxamide] | 32.5
18 | NS(=O)(=O)C1CCN(CCCCCNC(=O)c2cc(-c3cccs3)on2)CC1 [Example 14, N-(5-(4-sulfamoylpiperidin-1-yl)pentyl)-5-(thiophen-2-yl)isoxazole-3-carboxamide] | 23.8

Row | SMILES | maximal fold induction
19 | NS(=O)(=O)C1CCN(CCCCCNC(=O)c2cc(-c3ccc(F)cc3)on2)CC1 [Example 15, 5-(4-fluorophenyl)-N-(5-(4-sulfamoylpiperidin-1-yl)pentyl)isoxazole-3-carboxamide] | 18.9
20 | N#C[C@H]1CCN(CCCCCNC(=O)c2cc(-c3cccs3)on2)C[C@@H]1O [Example 16, N-(5-((3R,4R)-4-cyano-3-hydroxypiperidin-1-yl)pentyl)-5-(thiophen-2-yl)isoxazole-3-carboxamide] | 32.3
21 | NC(=O)CCN1CCN(CCCCCNC(=O)c2cc(-c3cccs3)on2)CC1 [Example 17, N-(5-(4-(3-amino-3-oxopropyl)piperazin-1-yl)pentyl)-5-(thiophen-2-yl)isoxazole-3-carboxamide] | 20.4
22 | NS(=O)(=O)CCN1CCN(CCCCCNC(=O)c2cc(-c3cccs3)on2)CC1 [Example 19, N-(5-(4-(2-sulfamoylethyl)piperazin-1-yl)pentyl)-5-(thiophen-2-yl)isoxazole-3-carboxamide] | 16.3
23 | NC(=O)C1CCN(CCCCCNC(=O)c2cc(-c3cccs3)on2)CC1 [Example 20, N-(5-(4-cathamoylpiperidin-1-yl)pentyl)-5-(thiophen-2-yl)isoxazole-3-carboxamide] | 14.7
24 | NC(=O)C1(O)CN(CCCCCNC(=O)c2cc(-c3cccs3)on2)C1 [Example 21, N-(5-(3-carbamoyl-3-hydroxyazetidin-1-yl)pentyl)-5-(thiophen-2-yl)isoxazole-3-carboxamide] | 20.8
25 | CNC(=O)C1CN(CCCCCNC(=O)c2cc(-c3ccc(F)s3)on2)C1 [Example 22, 5-(5-fluorothiophen-2-yl)-N-(5-(3-(methylcarbamoyl)azetidin-1-yl)pentyl)isoxazole-3-carboxamide] | 16.8
26 | NC(=O)C1CN(CCCCCNC(=O)c2cc(-c3ccc(F)s3)on2)C1 [Example 23, N-(5-(3-carbamoylazetidin-1-yl)pentyl)-5-(5-fluorothiophen-2-yl)isoxazole-3-carboxamide] | 24.3
27 | CC(C#N)NC(=O)C1CN(CCCCCNC(=O)c2cc(-c3ccc(F)cc3)on2)C1 (centres unmarked) [Example 24, N-(5-(3-((1-cyanoethyl)carbamoyl)azetidin-1-yl)pentyl)-5-(4-fluorophenyl)isoxazole-3-carboxamide] | 18.3
28 | CN1CCN(CCCCCNC(=O)c2cc(-c3cccs3)on2)CC1C(N)=O (centres unmarked) [Example 25, N-(5-(3-carbamoyl-4-methylpiperazin-1-yl)pentyl)-5-(thiophen-2-yl)isoxazole-3-carboxamide] | 13.1
29 | NC(=O)C1(O)CCN(CCCCCNC(=O)c2cc(-c3cccs3)on2)CC1 [Example 26, N-(5-(4-carbamoyl-4-hydroxypiperidin-1-yl)pentyl)-5-(thiophen-2-yl)isoxazole-3-carboxamide] | 16.3
30 | O=C(NCCCCCN1CC(C(=O)N[C@H]2CCC[C@H]2O)C1)c1cc(-c2ccc(F)cc2)on1 [Example 27, 5-(4-fluorophenyl)-N-(5-(3-(((1S,2R)-2-hydroxycyclopentyl)carbamoyl)azetidin-1-yl)pentyl)isoxazole-3-carboxamide] | 13.5
31 | NC(=O)[C@@H]1CCN(CCCCCNC(=O)c2cc(-c3cccs3)on2)C[C@@H]1F [Example 28-cis, N-(5-((3R,4S)-4-carbamoyl-3-fluoropiperidin-1-yl)pentyl)-5-(thiophen-2-yl)isoxazole-3-carboxamide] | 11.9
32 | NC(=O)[C@@H]1CCN(CCCCCNC(=O)c2cc(-c3cccs3)on2)C[C@H]1F [Example 28-trans, N-(5-((3S,4S)-4-carbamoyl-3-fluoropiperidin-1-yl)pentyl)-5-(thiophen-2-yl)isoxazole-3-carboxamide] | 16.8
33 | N#C[C@H]1CCN(CCCCCNC(=O)c2cc(-c3cccs3)on2)C[C@@H]1C(N)=O [Example 29, N-(5-((3R,4S)-3-carbamoyl-4-cyanopiperidin-1-yl)pentyl)-5-(thiophen-2-yl)isoxazole-3-carboxamide] | 15.4
34 | NC(=O)C1CCN(CCCCCNC(=O)c2cc(-c3ccc(F)cc3)on2)CC1O (centres unmarked) [Example 31, N-(5-(4-carbamoyl-3-hydroxypiperidin-1-yl)pentyl)-5-(4-fluorophenyl)isoxazole-3-carboxamide] | 14.7
35 | O=C(NCCCCCN1CC(C(=O)NC2COCC2O)C1)c1cc(-c2cccs2)on1 (centres unmarked) [Example 36, N-(5-(3-((4-hydroxytetrahydrofuran-3-yl)carbamoyl)azetidin-1-yl)pentyl)-5-(thiophen-2-yl)isoxazole-3-carboxamide] | 13.6
